The results in this text go back to patent US20170217899A1, “NOVEL HALOGEN-SUBSTITUTED COMPOUNDS” (BAYER CROPSCIENCE AKTIENGESELLSCHAFT, priority 2014, published 2017).

The logP is the decadic logarithm of the partition coefficient of the neutral form, usually between octanol and water. A high value points to a more lipophilic compound. Usually mortality stands for the share of the test organisms that died. A lower mortality goes with more survivors.

Where two headings read alike, the source gives them in different places.

Data set [1] in a line: logP determination by HPLC on reversed-phase column (C18), EEC Directive 79/831 Annex V.A8. The format is physicochemical. As to conditions: for chromatographic logP: reversed-phase HPLC column (C18).
For the next data set, the system named is Spodoptera frugiperda. The data set is described as follows: Spodoptera frugiperda spray test. The format is in vivo. The note with it: for mortality: 100 g/ha, maize leaf sections, larvae, after 7 days. The protocol:
Spodoptera Frugiperda—Spray Test
(§1) To produce a suitable preparation of active compound, 1 part by weight of active compound is mixed with the stated amount of solvents and is diluted with water, containing an emulsifier concentration of 1000 ppm, to the desired concentration. Further test concentrations are prepared by dilution with emulsifier containing water.
Maize (Zea mays) leaf sections are sprayed with a preparation of the active ingredient of the desired concentration. Once dry, the leaf sections are infested with fall armyworm larvae (Spodoptera frugiperda).
After 7 days mortality in % is determined. 100% means all caterpillars have been killed and 0% means none of the caterpillars have been killed.

For a further data set, the system named is Phaedon cochleariae. The data set is described as follows: Phaedon cochleariae spray test. The format is in vivo. The note with it: in Brassica rapa, foliar, 168 h. How it is done:
Phaedon cochleariae—Spray Test
as §1
Chinese cabbage (Brassica pekinensis) leaf disks are sprayed with a preparation of the active ingredient of the desired concentration. Once dry, the leaf disks are infested with mustard beetle larvae (Phaedon cochleariae).
After 7 days mortality in % is determined. 100% means all beetle larvae have been killed and 0% means none of the beetle larvae have been killed.

The test system of the next data set is Tetranychus urticae. The data set is described as follows: Tetranychus urticae spray test OP-resistant. The note with it: in Phaseolus vulgaris, foliar, 144 h. The format is in vivo. The protocol:
Tetranychus urticae—Spray Test OP-Resistant
as §1
French bean (Phaseolus vulgaris) leaf disks infected with all instars of the two spotted spidermite (Tetranychus urticae), are sprayed with a preparation of the active ingredient of the desired concentration.
After 6 days mortality in % is determined. 100% means all spider mites have been killed and 0% means none of the spider mites have been killed.

The test system of another data set is Myzus persicae. The data set is described as follows: Myzus persicae spray test. The format is in vivo. The note with it: 100 g/ha, Chinese cabbage leaf disks, all instars, after 6 days. How it is done:
Myzus Persicae—Spray Test
as §1
Chinese cabbage (Brassica pekinensis) leaf disks infected with all instars of the green peach aphid (Myzus persicae), are sprayed with a preparation of the active ingredient of the desired concentration.
After 6 days mortality in % is determined. 100% means all aphids have been killed and 0% means none of the aphids have been killed.

For the next data set, the system named is Lucilia cuprina. The data set is described as follows: Lucilia cuprina test (LUCICU). The format is in vivo. The note with it: 100 ppm, 1st instar larvae, after 2 days. The protocol: Lucilia cunrina—Test (LUCICU)
(§2) Solvent: Dimethyl Sulfoxide
10 mg active compound are dissolved in 0.5 ml Dimethylsulfoxid. Serial dilutions are made to obtain the desired rates.
Approximately 20 1st instar larvae of the Australian sheep blowfly (Lucilia cuprina) are transferred into a test tube containing minced horse meat and compound solution of the desired concentration.
After 2 days mortality in % is determined. 100% means all the larvae have been killed; 0% means none of the larvae have been killed.

The next data set relates to Ctenocephalides felis. Kind of data set: Ctenocephalides felis oral test (CTECFE). The data set is classed as in vivo. As to conditions: 100 ppm in cattle blood, adult cat fleas, after 2 days. The protocol: Ctenocephalides felis—Oral Test (CTECFE)
as §2
To produce a suitable preparation of active compound, 10 mg of active compound are dissolved in 0.5 ml solvent, and the concentrate is diluted with cattle blood to the desired concentration.
Approximately 20 adult unfed cat fleas (Cienocephalides felis) are placed in flea chambers. The blood chamber, sealed with parafilm on the bottom, are filled with cattle blood supplied with compound solution and placed on the gauze covered top of the flea chamber, so that the fleas are able to suck the blood. The blood chamber is heated to 37° C. whereas the flea chamber is kept at room temperature.
After 2 days mortality in % is determined. 100% means all the fleas have been killed; 0% means none of the fleas have been killed.

The next data set concerns Boophilus microplus. Kind of data set: Boophilus microplus injection test (BOOPMI Inj). As to conditions: 20 μg/animal, injection into adult engorged female ticks, egg deposition after 7 days. The data set is classed as in vivo. How it is done: Boophilus Microplus—Injectiontest (BOOPMI Inj)
as §2
To produce a suitable preparation of active compound, 10 mg of active compound are dissolved in 0.5 ml solvent, and the concentrate is diluted with solvent to the desired concentration.
Five adult engorged female ticks (Boophilus microplus) are injected with 1 μl compound solution into the abdomen. The ticks are transferred into replica plates and incubated in a climate chamber.
After 7 days egg deposition of fertile eggs is monitored. Eggs where fertility is not visible are stored in a climate chamber till hatching after about 42 days. An efficacy of 100% means all eggs are infertile; 0% means all eggs are fertile.

Setting [2] is: HPLC, C18, acetonitrile (0.1% formic acid)/water (0.09% formic acid) gradient.
Where [3] appears, read: intermediates, values in text, same HPLC method, read-out: log P (HPLC-MS).
Setting [4] is: intermediates, values in text, same HPLC method.
The mark [5] stands for this setting: HPLC, C18, acetonitrile (0.1% formic acid)/water (0.09% formic acid) gradient, read-out: logP.

Regarding `Cn1nc(C2(Br)CC2)c([N+](=O)[O-])c1-n1cc(-c2ccc(Cl)c(C(=O)NC3CC3)c2)cn1` [Example I-6], in data set [1] (setting [2]), the logP is recorded as 2.98.
For the compound `Cn1nc(C2(F)CC2)c(C=O)c1Cl` [Example 24, 5-chloro-3-(1-fluorocyclopropyl)-1-methyl-1H-pyrazole-4-carbaldehyde], the chromatographic logP in data set [1] (setting [3]) stood at 1.71.
The compound `Cn1nc(C2(Cl)CC2)c(C(F)F)c1-n1cc(-c2ccc(Cl)c(C(=O)NC3CC3)c2)cn1` [Example I-8] gave a logP in data set [1] (setting [2]) of 3.05. This compound came in with a mortality in the data set with Spodoptera frugiperda of 100%.
As to `Cn1nc(C2(Cl)CC2)c(C(F)F)c1-n1cc(-c2cnc(Cl)c(C(=O)NC3CC3)c2)cn1` [Example I-10], in data set [1] (setting [2]), the logP was determined as 2.60.
“4′-(difluoromethyl)-5′-(1-fluorocyclopropyl)-4-iodo-2′-methyl-2′H-1,3′-bipyrazole [Example 26]”: in data set [1] (setting [4]), the “log P (HPLC-MS)” value is listed as 3.37.
Consider “5′-(1-fluorocyclopropyl)-4-iodo-2′-methyl-2′H-1,3′-bipyrazole-4′-carbaldehyde [Example 25]”, for which the “log P (HPLC-MS)” value in data set [1] (setting [4]) came out at 2.86.
Consider `COC(=O)c1cc(-c2cnn(-c3c(C(F)F)c(C4(F)CC4)nn3C)c2)ccc1Cl` [Example 28, methyl 2-chloro-5-[4′-(difluoromethyl)-5′-(1-fluorocyclopropyl)-2′-methyl-2′H-1,3′-bipyrazol-4-yl]benzoate], for which, in data set [1] (setting [3]), the chromatographic logP was determined as 3.63.
Turning to `Cn1nc(C2(F)CC2)c(C(F)F)c1-n1cc(-c2ccc(Cl)c(C(=O)NC3(C#N)CC3)c2)cn1` [Example I-2, 2-chloro-N-(1-cyanocyclopropyl)-5-[4′-(difluoromethyl)-5′-(1-fluorocyclopropyl)-2′-methyl-2′H-1,3′-bipyrazol-4-yl]benzamide], the mortality at 100 g/ha in the data set on Phaedon cochleariae stood at 100%; in the data set with Tetranychus urticae, 100%; in the data set with Spodoptera frugiperda (Spodoptera frugiperda, in Zea mays, 168 h) it was 100%. The chromatographic logP in data set [1] (setting [5]) is 2.78.
On to `Cn1nc(C2(Cl)CC2)c(C(F)F)c1-n1cc(-c2cnc(Cl)c(C(=O)NC3(C#N)CC3)c2)cn1` [Example I-9], for which the log partition coefficient (logP) in data set [1] (setting [2]) turned out to be 2.63.
As to `Cn1nc(C2(F)CC2)c(C(F)(F)F)c1-n1cc(-c2ccc(Cl)c(C(=O)NC3(C#N)CC3)c2)cn1` [Example I-1, 2-chloro-N-(1-cyanocyclopropyl)-5-[5′-(1-fluorocyclopropyl)-2′-methyl-4′-(trifluoromethyl)-2′H-1,3′-bipyrazol-4-yl]benzamide], the chromatographic logP in data set [1] (setting [5]) amounted to 3.09.
Consider `Cn1nc(C2(Cl)CC2)c(C(F)F)c1-n1cc(-c2ccc(Cl)c(C(=O)NC3(C#N)CC3)c2)cn1` [Example I-7], for which the logP in data set [1] (setting [2]) was found to be 2.96. Moreover, the mortality is given as 100% in the data set with Spodoptera frugiperda and 90% in the data set with Myzus persicae.
Take `Cn1nc(C2(F)CC2)c([N+](=O)[O-])c1-n1cc(-c2ccc(Cl)c(C(=O)NC3(C#N)CC3)c2)cn1` [Example I-4]: the mortality in the data set with Lucilia cuprina and with Ctenocephalides felis was 100% throughout. The same compound came in with a logP in data set [1] (setting [2]) of 2.69. The “efficacy (infertile eggs)” value in the data set on Boophilus microplus stood at 100%.
Consider `CN(C)/C=C/C(=O)C1(F)CC1` [Example 16, (2E)-3-(dimethylamino)-1-(1-fluorocyclopropyl)prop-2-en-1-one], for which the chromatographic logP in data set [1] (setting [3]) was found to be 1.16.
In data set [1] (setting [2]), `Cn1nc(C2(F)CC2)c(C(F)F)c1-n1cc(-c2cnc(Cl)c(C(=O)NC3(C#N)CC3)c2)cn1` [Example I-11] yielded a logP of 2.44.
Same read-out and setting: to `Cn1nc(C2(F)CC2)c([N+](=O)[O-])c1-n1cc(-c2ccc(Cl)c(C(=O)NC3CC3)c2)cn1` [Example I-5] belongs 2.70; to `Cn1nc(C2(F)CC2)c(C(F)F)c1-n1cc(-c2cnc(Cl)c(C(=O)NC3CC3)c2)cn1` [Example I-12], 2.42.
With `Cn1nc(C2(F)CC2)c(C(F)F)c1-n1cc(-c2ccc(Cl)c(C(=O)O)c2)cn1` [Example 29, 2-chloro-5-[4′-(difluoromethyl)-5′-(1-fluorocyclopropyl)-2′-methyl-2′H-1,3′-bipyrazol-4-yl]benzoic acid], the chromatographic logP in data set [1] (setting [3]) turned out to be 2.71.
In turn, `Cn1nc(C2(F)CC2)c(C(F)F)c1-n1cc(-c2ccc(Cl)c(C(=O)NC3CC3)c2)cn1` [Example I-3] yielded a logP in data set [1] (setting [2]) of 2.81.
Regarding `CN1N=C(C2(F)CC2)CC1=O` [Example 32, 5-(1-fluorocyclopropyl)-2-methyl-2,4-dihydro-3H-pyrazol-3-one], the chromatographic logP in data set [1] (setting [3]) was 0.38.
Still for that read-out and setting: with `N#CC1(NC(=O)c2cc(-c3cn[nH]c3)ccc2Cl)CC1` [Example 14, 2-chloro-N-(1-cyanocyclopropyl)-5-(1H-pyrazol-4-yl)benzamide] the figure was 1.31.
